Laboratory results as given in patent US20250188110A1, “SPECIFIC SMALL MOLECULE INHIBITORS THAT BLOCK KMT9 METHYLTRANSFERASE ACTIVITY AND FUNCTION” (ALBERT-LUDWIGS-UNIVERSITÄT FREIBURG, priority 2021, published 2025).
Like-named read-outs stand apart in the source and are kept apart here.

Tests used:
[1] = molecular target: T1, KMT9 (Homo sapiens, UniProt Q9Y5N5); test: Microscale thermophoresis (MST) KMT9 binding; settings: His-tag labelled KMT9 20 nM
T1 sequence (Q9Y5N5 1-214): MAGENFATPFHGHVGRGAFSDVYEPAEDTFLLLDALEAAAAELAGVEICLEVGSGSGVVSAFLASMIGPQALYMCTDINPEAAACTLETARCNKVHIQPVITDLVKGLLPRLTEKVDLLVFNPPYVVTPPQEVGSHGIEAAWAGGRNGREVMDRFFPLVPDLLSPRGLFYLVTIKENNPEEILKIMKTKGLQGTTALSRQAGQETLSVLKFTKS
T1 sequence (Q9UI30 1-120 isoform Q9UI30-2 partner): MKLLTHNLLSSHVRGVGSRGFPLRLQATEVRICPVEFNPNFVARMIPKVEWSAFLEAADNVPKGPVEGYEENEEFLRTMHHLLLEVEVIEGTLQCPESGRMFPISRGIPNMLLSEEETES
Summary of the method: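 His-tagged KMT9 (20 nM), RED-Tris-NTA labelled, titrated with varying compound concentrations in 25 mM HEPES pH 7.5, 100 mM NaCl, 1 mM DTT, 0.05% Tween. MST at 40% MST and 100% LED power, Nano-RED excitation; Kd binned A ≤10 nM, B 10–100, C 100–1000, D >1000 nM.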

[2] = molecular target: T1, KMT9; test: KMT9 thermal shift assay (SyproOrange); type: binding; settings: 2 μM KMT9
Summary of the method: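 Recombinant KMT9 was incubated with compound and SyproOrange at 25° C in 50 mM BTP pH 8.5, 1 mM MgCl2, 1 mM DTT. It was then heated from 20° C to 95° C at 1° C per 15 s with fluorescence read each step. Tm came from a Boltzmann sigmoidal fit; ΔTm relative to DMSO control, binned in 5 K ranges.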

[3] = molecular target: T1, KMT9; test: KMT9 methyltransferase inhibition assay, MTaseGlo luminescence (from entry 155); type: biochemical; settings: 100 nM KMT9, 5 μM ETF1, 1 μM SAM
Summary of the method: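 KMT9 (100 nM final) pre-incubated with inhibitor for 15 min at room temperature, then reacted with 5 μM ETF1 and 1 μM SAM for 2 h at 30° C. at 2% DMSO final. MTaseGlo luminescence read after 60 min detection; IC50 reported in four potency bins.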

[4] = ΔTm class, 500 uM compound, read-out: Thermal shift
[5] = IC50 class, MTaseGlo procedure (entries from 155 on), read-out: Inhibition
[6] = 500 µM compound, read-out: Thermal shift (ΔTm)
[7] = MTaseGlo procedure (entries from 155), read-out: Inhibition (IC50)

| SMILES | Kd ([1]; Kd class, read-out: MST) | ΔTm at 500 µM [2, 4] | IC50 [3, 5] | Kd ([1]; read-out: MST (Kd)) | ΔTm at 500 µM [2, 6] | IC50 [3, 7] |
| --- | --- | --- | --- | --- | --- | --- |
| CN(CCCNCCc1ccc(F)cc1)C[C@H]1C[C@@H](n2cc(-c3ccn(C)n3)c3cnc(Cl)nc32)[C@H](O)[C@@H]1O [Compound 644, (1R,2S,3R,5R)-3-[2-Chloro-5-(1-methylpyrazol-3-yl)pyrrolo[2,3-d]pyrimidin-7-yl]-5-{[(3-{[2-(4-fluorophenyl)ethyl]amino}propyl)(methyl)amino]methyl}cyclopentane-1,2-diol] | > 1 µM | ≤ 10 °C | > 10 µM |  |  |  |
| CN(CCCNCCc1ccc(F)cc1)C[C@H]1C[C@@H](n2cc(-c3ccn(C)n3)c3c(N)nc(Cl)nc32)[C@H](O)[C@@H]1O [Compound 645, (1R,2S,3R,5R)-3-[4-Amino-2-chloro-5-(1-methylpyrazol-3-yl)pyrrolo[2,3-d]pyrimidin-7-yl]-5-{[(3-{[2-(4-fluorophenyl)ethyl]amino}propyl)(methyl)amino]methyl}cyclopentane-1,2-diol] |  |  |  | 0.01 to 0.1 µM | > 20 °C | 0.1 to 1 µM |
| Nc1nc(Cl)nc2c1c(-c1nc(Cc3ccccc3)cs1)cn2[C@@H]1C[C@H](CNCCCNCCc2ccc(F)cc2)[C@@H](O)[C@H]1O [Compound 646, (1R,2S,3R,5R)-3-(4-Amino-5-(4-benzylthiazol-2-yl)-2-chloro-7H-pyrrolo[2,3-d]pyrimidin-7-yl)-5-(((3-((4-fluorophenethyl)amino)propyl)amino)methyl)cyclopentane-1,2-diol] | 0.01 to 0.1 µM | > 20 °C | 0.1 to 1 µM |  |  |  |
| CN(CCCNCCc1ccc(F)cc1)C[C@H]1C[C@@H](n2cc(-c3nc(Cc4ccccc4)cs3)c3c(N)nc(Cl)nc32)[C@H](O)[C@@H]1O [Compound 647, (1R,2S,3R,5R)-3-(4-Amino-5-(4-benzylthiazol-2-yl)-2-chloro-7H-pyrrolo[2,3-d]pyrimidin-7-yl)-5-(((3-((4-fluorophenethyl)amino)propyl)(methyl)amino)methyl)cyclopentane-1,2-diol] |  |  |  | 0.01 to 0.1 µM | > 20 °C | 1 to 10 µM |
| CN(CCCNCCc1ccc(F)cc1)C[C@H]1C[C@@H](n2cc(-c3nccs3)c3c(N)nc(Cl)nc32)[C@H](O)[C@@H]1O [Compound 648, (1R,2S,3R,5R)-3-[4-Amino-2-chloro-5-(1,3-thiazol-2-yl)pyrrolo[2,3-d]pyrimidin-7-yl]-5-{[(3-{[2-(4-fluorophenyl)ethyl]amino}propyl)(methyl)amino]methyl}cyclopentane-1,2-diol] |  |  |  | ≤ 0.01 µM | > 20 °C | 0.1 to 1 µM |
| Nc1ncnc2c1ccn2[C@@H]1C[C@H](c2cccc(-c3cccnc3)c2)[C@@H](O)[C@H]1O [Compound 649, (1R,2S,3R,5R)-3-(4-amino-7H-pyrrolo[2,3-d]pyrimidin-7-yl)-5-(3-(pyridin-3-yl)phenyl)cyclopentane-1,2-diol] | > 1 µM | ≤ 10 °C | > 10 µM |  |  |  |
| Nc1ncnc2c1ccn2[C@@H]1C[C@H](c2cccc(-c3cnsc3)c2)[C@@H](O)[C@H]1O [Compound 650, (1R,2S,3R,5R)-3-(4-amino-7H-pyrrolo[2,3-d]pyrimidin-7-yl)-5-(3-(isothiazol-4-yl)phenyl)cyclopentane-1,2-diol] | 0.1 to 1 µM | ≤ 10 °C | > 10 µM |  |  |  |
| O[C@@H]1[C@H](O)[C@@H](C2=CCCN(CC(F)(F)F)C2)C[C@H]1n1cc(-c2nc(Cc3ccccc3)cs2)c2cnc(Cl)nc21 [Compound 651, (1R,2S,3R,5R)-3-[5-(4-Benzyl-1,3-thiazol-2-yl)-2-chloropyrrolo[2,3-d]pyrimidin-7-yl]-5-[1-(2,2,2-trifluoroethyl)-5,6-dihydro-2H-pyridin-3-yl]cyclopentane-1,2-diol] | > 1 µM | ≤ 10 °C | > 10 µM |  |  |  |
| Nc1ncnc2c1ccn2[C@@H]1C[C@H](c2cccc(-c3cn[nH]c3)c2)[C@@H](O)[C@H]1O [Compound 652, (15,2R,3R,5R)-3-(3-(1H-pyrazol-4-yl)phenyl)-5-(4-amino-7H-pyrrolo[2,3-d]pyrimidin-7-yl)cyclopentane-1,2-diol] | > 1 µM | ≤ 10 °C | > 10 µM |  |  |  |
| Nc1ncnc2c1ccn2[C@@H]1C[C@H](c2cccc(-c3cncs3)c2)[C@@H](O)[C@H]1O [Compound 653, (1R,2S,3R,5R)-3-(4-amino-7H-pyrrolo[2,3-d]pyrimidin-7-yl)-5-(3-(thiazol-5-yl)phenyl)cyclopentane-1,2-diol] | > 1 µM | ≤ 10 °C | > 10 µM |  |  |  |
| Nc1ncnc2c1ccn2[C@@H]1C[C@H](c2cccc(-c3cscn3)c2)[C@@H](O)[C@H]1O [Compound 654, (1R,2S,3R,5R)-3-{4-aminopyrrolo[2,3-d]pyrimidin-7-yl}-5-[3-(1,3-thiazol-4-yl)phenyl]cyclopentane-1,2-diol] | > 1 µM | ≤ 10 °C | > 10 µM |  |  |  |
| Nc1nc(Cl)nc2c1ccn2[C@@H]1C[C@H](c2ccc(O)cc2)[C@@H](O)[C@H]1O [Compound 655] |  |  |  | ≤ 0.01 µM | 10 to 15 °C | 0.1 to 1 µM |
| CNc1nc(Cl)nc2c1ccn2[C@@H]1C[C@H](c2ccc(O)cc2)[C@@H](O)[C@H]1O [Compound 656, (1R,2S,3R,5R)-3-(2-chloro-4-(methylamino)-7H-pyrrolo[2,3-d]pyrimidin-7-yl)-5-(4-hydroxyphenyl)cyclopentane-1,2-diol] |  |  |  | 0.01 to 0.1 µM | ≤ 10 °C | 1 to 10 µM |
| CNc1ncnc2c1ccn2[C@@H]1C[C@H](c2cn[nH]c2)[C@@H](O)[C@H]1O [Compound 657, (1R,2S,3R,5R)-3-[4-(Methylamino)pyrrolo[2,3-d]pyrimidin-7-yl]-5-(1H-pyrazol-4-yl)cyclopentane-1,2-diol] |  |  |  | > 1 µM | ≤ 10 °C | > 10 µM |
| Nc1ncnc2c1ccn2[C@@H]1C[C@H](c2cn[nH]c2)[C@@H](O)[C@H]1O [Compound 658, (1R,2S,3R,5R)-3-{4-Aminopyrrolo[2,3-d]pyrimidin-7-yl}-5-(1H-pyrazol-4-yl)cyclopentane-1,2-diol] |  |  |  | > 1 µM | ≤ 10 °C | > 10 µM |
| NCc1cccc([C@H]2C[C@@H](n3ccc4c(N)ncnc43)[C@H](O)[C@@H]2O)c1 [Compound 659, (1R,2S,3R,5R)-3-(4-Amino-7H-pyrrolo[2,3-d]pyrimidin-7-yl)-5-(3-(aminomethyl)phenyl)cyclopentane-1,2-diol] |  |  |  | 0.1 to 1 µM | ≤ 10 °C | 1 to 10 µM |
| NCc1cccc([C@H]2C[C@@H](n3ccc4c(N)nc(Cl)nc43)[C@H](O)[C@@H]2O)c1 [Compound 660, (1R,2S,3R,5R)-3-{4-Amino-2-chloropyrrolo[2,3-d]pyrimidin-7-yl}-5-[3-(aminomethyl)phenyl]cyclopentane-1,2-diol] |  |  |  | ≤ 0.01 µM | 15 to 20 °C | < 0.1 µM |
| Cn1cc([C@H]2C[C@@H](n3ccc4c(N)nc(Cl)nc43)[C@H](O)[C@@H]2O)cn1 [Compound 661, (1R,2S,3R,5R)-3-(4-Amino-2-chloro-7H-pyrrolo[2,3-d]pyrimidin-7-yl)-5-(1-methyl-1H-pyrazol-4-yl)cyclopentane-1,2-diol] |  |  |  | 0.1 to 1 µM | ≤ 10 °C | 1 to 10 µM |
| Nc1nc(Cl)nc2c1ccn2[C@@H]1C[C@H](c2cc[nH]c(=O)c2)[C@@H](O)[C@H]1O [Compound 662, 4-[(1R,2R,3S,4R)-4-{4-Amino-2-chloropyrrolo[2,3-d]pyrimidin-7-yl}-2,3-dihydroxycyclopentyl]-1H-pyridin-2-one] |  |  |  | 0.1 to 1 µM | ≤ 10 °C | 1 to 10 µM |
